Measured values from patent US12453712B2, “Antitumoral use of cabazitaxel” (Sanofi Mature IP, priority 2009, dated 2025).

Assay: Same clinical study: adverse reactions, hematologic abnormalities, treatment discontinuation, delays and dose reductions
Format: in vivo, human
Method: A clinical study was performed wherein patients received either treatment with cabazitaxel or the reference treatment based on mitoxantrone each combined with prednisone or prednisolone.
More specifically, patients over 18 years of age with metastatic castration resistant metastatic prostate cancer either measurable by RECIST criteria or non-measurable disease with rising PSA levels or appearance of new lesions, ECOG (Eastern Cooperative Oncology Group) performance stage 0-2, and adequate organ function (patients had to have neutrophils >1,500 cells/mm^3, platelets >100,000 cells/mm^3, hemoglobin >10 g/dL, creatinine <1.5×upper limit of normal (ULN), total bilirubin <1×ULN, AST <1.5×ULN, and ALT <1.5×ULN) who had had prior hormone therapy, chemotherapy, and radiotherapy, but had progressive during or after docetaxel treatment (cumulative dose ≥225 mg/m^2) were randomized to 10 mg/day of prednisone with either mitoxantrone 12 mg/m^2 or cabazitaxel 25 mg/m^2, both administered every 3 weeks.
Patients with a history of congestive heart failure, or myocardial infarction within the last 6 months, or patients with uncontrolled cardiac arrhythmias, angina pectoris, and/or hypertension were not included in the study.
720 patients were planned to be included in the clinical study: 360 in each cabazitaxel+prednisone and mitoxantrone+prednisone group. Seven hundred and fifty-five patients (755) (median age 68; 84% white) were actually enrolled, 378 in the cabazitaxel and prednisone/prednisolone group and 377 in the mitoxantrone and prednisone/prednisolone group. The maximal number of treatment cycles was 10 for cabazitaxel and 10 for mitoxantrone. The median number of treatment cycles was 6 for cabazitaxel and 4 for mitoxantrone. The median prior dose of docetaxel treatment was 576 mg/m^2 for the cabazitaxel group and 529 mg/m^2 for the mitoxantrone group. Median follow-up was 12.8 months.

[1] = human, in vivo, listed as Cabazitaxel
[2] = percent of patients, laboratory values, cabazitaxel: n = 369, mitoxantrone: n = 370

Question: Which results are given for `CO[C@H]1C(=O)[C@]2(C)[C@@H](OC)C[C@H]3OC[C@@]3(OC(C)=O)[C@H]2[C@H](OC(=O)c2ccccc2)[C@]2(O)C[C@H](OC(=O)[C@H](O)[C@@H](NC(=O)OC(C)(C)C)c3ccccc3)C(C)=C1C2(C)C` [cabazitaxel, 4α-acetoxy-2α-benzoyloxy-5β,20-epoxy-1β-hydroxy-7β,10β-dimethoxy-9-oxo-11-taxen-13α-yl (2R,3S)-3-tert-butoxycarbonyl-amino-2-hydroxy-3-phenylpropionate]?
Answer: Rates of febrile neutropenia (Example 1): 7.5%; Dose reductions, cycles (%) (human, in vivo): 9.8%; Dose reductions, no. of cycles (human, in vivo): 221; Treatment delays >9 days, cycles (%) (human, in vivo): 2.3%; Treatment delays >9 days, no. of cycles (human, in vivo): 51; Treatment delays ≤9 days, cycles (%) (human, in vivo): 7%; Treatment delays ≤9 days, no. of cycles (human, in vivo): 157; Dose reductions, cycles (%) [1]: (9.8) %; Treatment delays >9 days, cycles (%) [1]: (2.3) %; Treatment delays ≤9 days, cycles (%) [1]: (7.0) %; Discontinuation of study treatment for adverse event, (%) (intention-to-treat): (17.7) %; Discontinuation of study treatment for adverse event, no. (intention-to-treat, N = 377 mitoxantrone, N = 378 cabazitaxel): 67; most common (≥5%) grade 3-4 adverse reactions (patients who received cabazitaxel): neutropenia, leukopenia, anemia, febrile neutropenia, diarrhea, fatigue, and asthenia; Abdominal Pain Grade 1-4, (%) (percent of patients of n = 371): (17%); Abdominal Pain Grade 3-4, (%) (percent of patients of n = 371): (2%); Alopecia Grade 1-4, (%) (percent of patients of n = 371): (10%); Anorexia Grade 1-4, (%) (percent of patients of n = 371): (16%); Anorexia Grade 3-4, (%) (percent of patients of n = 371): (<1%); Arrhythmia Grade 1-4, (%) (percent of patients of n = 371): (5%); Arrhythmia Grade 3-4, (%) (percent of patients of n = 371): (1%); Arthralgia Grade 1-4, (%) (percent of patients of n = 371): (11%); Arthralgia Grade 3-4, (%) (percent of patients of n = 371): (1%); Asthenia Grade 1-4, (%) (percent of patients of n = 371): (20%); Asthenia Grade 3-4, (%) (percent of patients of n = 371): (5%); Back Pain Grade 1-4, (%) (percent of patients of n = 371): (16%); Back Pain Grade 3-4, (%) (percent of patients of n = 371): (4%); Bone Pain Grade 1-4, (%) (percent of patients of n = 371): (5%); Bone Pain Grade 3-4, (%) (percent of patients of n = 371): (<1%); Constipation Grade 1-4, (%) (percent of patients of n = 371): (20%); Constipation Grade 3-4, (%) (percent of patients of n = 371): (1%); Cough Grade 1-4, (%) (percent of patients of n = 371): (11%); Dehydration Grade 1-4, (%) (percent of patients of n = 371): (5%); Dehydration Grade 3-4, (%) (percent of patients of n = 371): (2%); Diarrhea Grade 1-4, (%) (percent of patients of n = 371): (47%); Diarrhea Grade 3-4, (%) (percent of patients of n = 371): (6%); Dizziness Grade 1-4, (%) (percent of patients of n = 371): (8%); Dysgeusia Grade 1-4, (%) (percent of patients of n = 371): (11%); Dyspepsia Grade 1-4, (%) (percent of patients of n = 371): (10%); Dyspnea Grade 1-4, (%) (percent of patients of n = 371): (12%); Dyspnea Grade 3-4, (%) (percent of patients of n = 371): (1%); Dysuria Grade 1-4, (%) (percent of patients of n = 371): (7%); Fatigue Grade 1-4, (%) (percent of patients of n = 371): (37%); Fatigue Grade 3-4, (%) (percent of patients of n = 371): (5%); Febrile Neutropenia Grade 1-4, (%) (percent of patients of n = 371): (7%); Febrile Neutropenia Grade 3-4, (%) (percent of patients of n = 371): (7%); Headache Grade 1-4, (%) (percent of patients of n = 371): (8%); Hematuria Grade 1-4, (%) (percent of patients of n = 371): (17%); Hematuria Grade 3-4, (%) (percent of patients of n = 371): (2%); Hypotension Grade 1-4, (%) (percent of patients of n = 371): (5%); Hypotension Grade 3-4, (%) (percent of patients of n = 371): (<1%); Mucosal Inflammation Grade 1-4, (%) (percent of patients of n = 371): (6%); Mucosal Inflammation Grade 3-4, (%) (percent of patients of n = 371): (<1%); Muscle Spasms Grade 1-4, (%) (percent of patients of n = 371): (7%); Musculoskeletal Pain Grade 1-4, (%) (percent of patients of n = 371): (5%); Musculoskeletal Pain Grade 3-4, (%) (percent of patients of n = 371): (<1%); Nausea Grade 1-4, (%) (percent of patients of n = 371): (34%); Nausea Grade 3-4, (%) (percent of patients of n = 371): (2%); Pain Grade 1-4, (%) (percent of patients of n = 371): (5%); Pain Grade 3-4, (%) (percent of patients of n = 371): (1%); Pain in Extremity Grade 1-4, (%) (percent of patients of n = 371): (8%); Pain in Extremity Grade 3-4, (%) (percent of patients of n = 371): (2%); Peripheral Edema Grade 1-4, (%) (percent of patients of n = 371): (9%); Peripheral Edema Grade 3-4, (%) (percent of patients of n = 371): (<1%); Peripheral Neuropathy Grade 1-4, (%) (percent of patients of n = 371): (13%); Peripheral Neuropathy Grade 3-4, (%) (percent of patients of n = 371): (<1%); Pneumonia Grade 1-4, (%) (percent of patients of n = 371): (3%); Pneumonia Grade 3-4, (%) (percent of patients of n = 371): (2%); Pyrexia Grade 1-4, (%) (percent of patients of n = 371): (12%); Pyrexia Grade 3-4, (%) (percent of patients of n = 371): (1%); Urinary Tract Infection Grade 1-4, (%) (percent of patients of n = 371): (8%); Urinary Tract Infection Grade 3-4, (%) (percent of patients of n = 371): (2%); Vomiting Grade 1-4, (%) (percent of patients of n = 371): (22%); Vomiting Grade 3-4, (%) (percent of patients of n = 371): (2%); Weight Decreased Grade 1-4, (%) (percent of patients of n = 371): (9%); Anemia Grade 1-4, (%) [2]: (98%); Anemia Grade 3-4, (%) [2]: (11%); Leukopenia Grade 1-4, (%) [2]: (96%); Leukopenia Grade 3-4, (%) [2]: (69%); Neutropenia Grade 1-4, (%) [2]: (94%); Neutropenia Grade 3-4, (%) [2]: 81.7%; Thrombocytopenia Grade 1-4, (%) [2]: (48%); Thrombocytopenia Grade 3-4, (%) [2]: (4%); Neutropenia Grade 3-4, (%) (percent of patients, laboratory values, cabazitaxel: n = 369, mitoxantrone: n = 370, listed as Cabazitaxel): (82%)
